Source: patent US8933075B2, “Compounds useful as antiviral agents, compositions, and methods of use” (priority 2010, dated 2015)

These molecules were tested on A/Udorn/72 (H3N2) virus (assay: Plaque assay in MDCK cells: EC50 by reduction of plaque number). Conditions: MDCK.
Format: cell-based, influenza virus

SMILES	EC50 [nM]
O=C1/C(=C/c2sc(-c3cccc(Cl)c3)cc2C#CCCCO)SC(=S)N1C1CC2CCC1C2 (stereo not shown) [Compound 286]	< 100
NCCCc1cc(-c2ccc(F)cc2)oc1/C=C1\SC(=S)N(C2CC3CCC2C3)C1=O (stereo not shown) [Compound 127]	< 100
O=C1/C(=C/c2oc(-c3ccc(OC(F)(F)F)cc3)cc2CCCCCO)SC(=S)N1C1CC2CCC1C2 (stereo not shown) [Compound 340]	< 100
COc1ccc(-c2ccc(/C=C3\SC(=S)N(C4CCCCC4)C3=O)o2)c(F)c1F [Compound 52]	< 100
COc1cc(OC)cc(-c2cc(CCCO)c(/C=C3\SC(=S)N(C4CC5CCC4C5)C3=O)o2)c1 (stereo not shown) [Compound 96]	< 100
COc1cccc(-c2cc(CCCCCO)c(/C=C3\SC(=S)N(C4CC5CCC4C5)C3=O)[nH]2)c1 (stereo not shown) [Compound 235]	< 100
O=C1/C(=C/c2oc(-c3ccc(Cl)cc3)cc2CCCO)SC(=S)N1C1C2CC3CC(C2)CC1C3 (stereo not shown) [Compound 100]	< 100
O=C1/C(=C/c2oc(-c3ccc(Cl)cc3)cc2CCCN2CCOCC2)SC(=S)N1C1CC2CCC1C2 (stereo not shown) [Compound 179]	< 100
COc1cccc(-c2c(C#CCCCO)cc(/C=C3\SC(=S)N(C4CC5CCC4C5)C3=O)n2C)c1 (stereo not shown) [Compound 266]	< 100
COc1ccc(-c2ccc(/C=C3\SC(=S)N(C4CC5CCC4C5)C3=O)o2)cc1OCC(=O)O (stereo not shown) [Compound 35]	< 100
COc1ccc2c(O)c(-c3ccc(/C=C4\SC(=S)N(C5C6CC7CC(C6)CC5C7)C4=O)o3)c(=O)oc2c1OC (stereo not shown) [Compound 72]	100 to 250
O=C1/C(=C/c2oc(-c3ccc(Cl)cc3)cc2CCCN2CCNCC2)SC(=S)N1C1C2CC3CC(C2)CC1C3 (stereo not shown) [Compound 191]	< 100
COc1cccc(-c2cc(CCCCCO)c(/C=C3\SC(=S)N(C4C5CC6CC(C5)CC4C6)C3=O)o2)c1 (stereo not shown) [Compound 347]	< 100
COCOc1cc(=O)oc2ccc(-c3ccc(/C=C4\SC(=S)N(C5C6CC7CC(C6)CC5C7)C4=O)o3)cc12 (stereo not shown) [Compound 75]	250 to 1000
COc1cc(OC)cc(-c2cc(CCCOC(C)=O)c(/C=C3\SC(=S)N(C4C5CC6CC(C5)CC4C6)C3=O)o2)c1 (stereo not shown) [Compound 98]	< 100
COc1ccc(-c2cc(CCCCCO)c(/C=C3\SC(=S)N(C4CC5CCC4C5)C3=O)o2)cc1 (stereo not shown) [Compound 341]	< 100
N=C(N)NCCCc1cc(-c2ccc(Cl)cc2)oc1/C=C1\SC(=S)N(C2CC3CCC2C3)C1=O (stereo not shown) [Compound 197]	< 100
COC(=O)c1cc(-c2ccc(/C=C3\SC(=S)N(C4CC5CCC4C5)C3=O)o2)ccc1OC (stereo not shown) [Compound 14]	< 100
COc1cc(OC)cc(-c2ccc(/C=C3\SC(=S)N(C4CC5CCC4C5)C3=O)[nH]2)c1 (stereo not shown) [Compound 58]	< 100
CCOC(=O)c1c(F)ccc(-c2ccc(/C=C3\SC(=S)N(C4CCCC4)C3=O)o2)c1F [Compound 45]	< 100
O=C1/C(=C/c2ccc(-c3c(O)c4cc(Cl)ccc4oc3=O)o2)SC(=S)N1C1CC2CCC1C2 (stereo not shown) [Compound 322]	< 100
O=C1/C(=C/c2oc(-c3ccc(F)cc3)cc2CCCCCCO)SC(=S)N1C1CC2CCC1C2 (stereo not shown) [Compound 107]	< 100
CC(C)(C)OC(=O)N[C@@H](CC(N)=O)C(=O)OCCCc1cc(-c2ccc(Cl)cc2)[nH]c1/C=C1\SC(=S)N(C2C3CC4CC(C3)CC2C4)C1=O (stereo partly shown) [Compound 253]	< 100

SMILES	EC50 [nM]
COc1ccc(-c2ccc(/C=C3\SC(=S)N(C4CC5CCC4C5)C3=O)o2)cc1OCC(=O)N[C@@H](Cc1ccccc1)C(=O)O (stereo partly shown) [Compound 79]	< 100
O=C1/C(=C/c2csc3ccccc23)SC(=S)N1C1C2CC3CC(C2)CC1C3 (stereo not shown) [Compound 211, 3-adamantan-2-yl-5-benzo[b]thiophen-3-ylmethylene-2-thioxo-thiazolidin-4-one]	< 100
COC(=O)/C=C/c1ccc(/C=C2\SC(=S)N(C3CC4CCC3C4)C2=O)o1 (stereo not shown) [Compound 221, (E)-Methyl 3-(5-((Z)-(3-(bicyclo[2.2.1]heptan-2-yl)-4-oxo-2-thioxothiazolidin-5-ylidene)methyl)-furan-2-yl)acrylate]	< 100
Cn1c(-c2ccc(Cl)cc2)cc(CCCCCO)c1/C=C1\SC(=S)N(C2C3CC4CC(C3)CC2C4)C1=O (stereo not shown) [Compound 261]	< 100
COc1ccc(-c2ccc(/C=C3\SC(=S)N(C4CC5CCC4C5)C3=O)o2)cc1OCC(=O)N[C@@H](Cc1cnc[nH]1)C(=O)O (stereo partly shown) [Compound 82]	< 100
COC(=O)c1cc(-c2ccc(/C=C3\SC(=S)N(C4C5CC6CC(C5)CC4C6)C3=O)o2)ccc1OC (stereo not shown) [Compound 13]	< 100
COc1cccc(-c2cc(CCCO)c(/C=C3\SC(=S)N(C4C5CC6CC(C5)CC4C6)C3=O)s2)c1 (stereo not shown) [Compound 282]	< 100
COc1cc(OC)cc(-c2cc(CCCOC(=O)[C@H](CC(C)C)NC(=O)OCC3c4ccccc4-c4ccccc43)c(/C=C3\SC(=S)N(C4CC5CCC4C5)C3=O)o2)c1 (stereo partly shown) [Compound 141]	250 to 1000
CC(C)(C)OC(=O)N[C@@H](CC(N)=O)C(=O)OCCCCCc1cc(-c2ccc(Cl)cc2)sc1/C=C1\SC(=S)N(C2C3CC4CC(C3)CC2C4)C1=O (stereo partly shown) [Compound 308]	< 100
O=C1/C(=C/c2ccc(Br)s2)SC(=S)N1C1C2CC3CC(C2)CC1C3 (stereo not shown) [Compound 212]	< 100
COc1cc(OC)cc(-c2cc(CCCNC(=O)[C@H](CC(C)C)NC(=O)OCC3c4ccccc4-c4ccccc43)c(/C=C3\SC(=S)N(C4CC5CCC4C5)C3=O)o2)c1 (stereo partly shown) [Compound 159]	< 100
COc1ccc2oc(=O)c(-c3ccc(/C=C4\SC(=S)N(C5C6CC7CC(C6)CC5C7)C4=O)o3)c(O)c2c1 (stereo not shown) [Compound 70]	100 to 250
COc1ccc2oc(=O)c(CCC(=O)OCCCc3cc(-c4ccc(Cl)cc4)oc3/C=C3\SC(=S)N(C4CC5CCC4C5)C3=O)c(O)c2c1 (stereo not shown) [Compound 336]	< 100
Nc1ccc(-c2ccc(/C=C3\SC(=S)N(C4C5CC6CC(C5)CC4C6)C3=O)o2)cc1 (stereo not shown) [Compound 12]	< 100
COc1cc(OC)cc(-c2cc(CCCNC(=O)[C@@H]3CCCN3)c(/C=C3\SC(=S)N(C4CC5CCC4C5)C3=O)o2)c1 (stereo partly shown) [Compound 172]	< 100
COc1cc(C)c(-c2ccc(/C=C3\SC(=S)N(C4CCCC4)C3=O)o2)cc1C [Compound 51]	< 100
O=C1/C(=C/c2oc(-c3ccc(OC(F)(F)F)cc3)cc2CCCCCO)SC(=S)N1C1C2CC3CC(C2)CC1C3 (stereo not shown) [Compound 339]	< 100
CCOC(=O)/C=C/c1ccc(/C=C2\SC(=S)N(C3C4CC5CC(C4)CC3C5)C2=O)o1 (stereo not shown) [Compound 223, (E)-Ethyl 3-(5-((Z)-(3-(adamantan-2-yl)-4-oxo-2-thioxothiazolidin-5-ylidene)methyl)furan-2-yl)acrylate]	< 100
COc1cccc(-c2cc(CCCCCO)c(/C=C3\SC(=S)N(C4C5CC6CC(C5)CC4C6)C3=O)s2)c1 (stereo not shown) [Compound 279]	< 100
O=C1/C(=C/c2oc(-c3ccc(F)cc3)cc2CCCCCO)SC(=S)N1C1C2CC3CC(C2)CC1C3 (stereo not shown) [Compound 106]	< 100
CC(C)(C)N1C(=O)C[C@@H](C(=O)OCCCc2cc(-c3ccc(Cl)cc3)[nH]c2/C=C2\SC(=S)N(C3C4CC5CC(C4)CC3C5)C2=O)NC1=O (stereo partly shown) [Compound 252]	< 100
COc1cc(OC)cc(-c2cc(CCCN3CCNCC3)c(/C=C3\SC(=S)N(C4CC5CCC4C5)C3=O)o2)c1 (stereo not shown) [Compound 188]	< 100
COc1ccc2c(O)c(-c3ccc(/C=C4\SC(=S)N(C5CC6CCC5C6)C4=O)o3)c(=O)oc2c1 (stereo not shown) [Compound 73]	100 to 250
